Measured values taken from patent US20250282728A1, “NITROGEN COMPRISING HETEROCYCLIC DERIVATIVES FOR THE TREATMENT OF DISORDERS ASSOCIATED WITH GPR55 RECEPTOR” (Cerevance, Inc., priority 2022, published 2025).

Legend:
[1] = target: T1, human GPR55 (Homo sapiens, UniProt Q9Y2T6); test: Ca2+ mobilization assay (FLIPR, Calcium5 dye), human GPR55; assay type: cell-based; settings: HEK293 cells co-expressing PK-tagged human GPR55 and EA-tagged beta-arrestin; intracellular calcium increase
T1 construct: expressed in transfected cells; host or cells: HEK293 (human embryonic kidney) cells
Experimental: (§1) This cell-based assay measures the ability of compounds to activate the GPR55 receptor by measuring changes in intracellular calcium levels. HEK293 (human embryonic kidney) cells co-expressing recombinant ProLink (PK) tagged human or rat GPR55 and Enzyme Acceptor (EA) tagged beta-arrestin were seeded into PDL-coated, black-walled clear-bottom 384 well plates in assay buffer (25 mM HEPES, HBSS, 1 mM Probenicid, 0.1% BSA, pH 7.4) containing Calcium5 dye (Molecular Devices). Cells were incubated in suspension with the Calcium5 dye for 1 hour at 37° C., 5% CO2. Dilution series of the compounds in assay buffer were added to the cells in duplicate wells and compound-mediated real-time increases in intracellular calcium concentration were recorded as increased fluorescence using the Molecular Devices FLIPR instrument. Kinetic traces were reduced to a numerical value by subtracting the minimum response from the maximum response.

[2] = target: T2, rat GPR55 (Rattus norvegicus, UniProt F1MAK4); test: Ca2+ mobilization assay (FLIPR, Calcium5 dye), rat GPR55; assay type: cell-based; settings: HEK293 cells co-expressing PK-tagged rat GPR55 and EA-tagged beta-arrestin; intracellular calcium increase
T2 construct: expressed in transfected cells; host or cells: HEK293 (human embryonic kidney) cells
T2 sequence (F1MAK4 1-319): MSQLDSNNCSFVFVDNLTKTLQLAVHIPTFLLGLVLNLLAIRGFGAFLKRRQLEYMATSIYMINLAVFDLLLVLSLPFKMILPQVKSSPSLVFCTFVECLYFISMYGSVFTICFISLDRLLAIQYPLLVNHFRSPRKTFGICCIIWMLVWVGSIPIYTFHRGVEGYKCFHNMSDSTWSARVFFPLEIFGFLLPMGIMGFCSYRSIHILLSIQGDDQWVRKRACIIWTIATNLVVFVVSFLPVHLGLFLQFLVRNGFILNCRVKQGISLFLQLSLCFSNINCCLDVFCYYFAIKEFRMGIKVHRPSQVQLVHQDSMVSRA
Experimental: as §1

T1 sequence (Q9Y2T6 whole entry): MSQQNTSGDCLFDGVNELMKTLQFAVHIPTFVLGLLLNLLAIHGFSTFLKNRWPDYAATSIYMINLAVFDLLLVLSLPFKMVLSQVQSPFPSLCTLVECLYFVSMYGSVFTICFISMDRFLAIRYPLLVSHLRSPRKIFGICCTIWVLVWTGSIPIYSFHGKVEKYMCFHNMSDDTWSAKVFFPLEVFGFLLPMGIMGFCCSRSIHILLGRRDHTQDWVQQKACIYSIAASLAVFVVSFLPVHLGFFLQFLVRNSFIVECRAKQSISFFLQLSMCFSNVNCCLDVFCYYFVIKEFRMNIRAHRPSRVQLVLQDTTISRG

SMILES	EC50 [1]	EC50 [2]
CNCc1cncc(-c2cnc(N[C@H](C)c3ccc(F)cc3)cn2)c1 [Example 37, (R)-N-(1-(4-fluorophenyl)ethyl)-5-(5-(methylamino)methylpyridin-3-yl)pyrazin-2-amine]	≤ 200 nM	≤ 50 nM
C[C@@H](Nc1ccc(-c2cncc(C3CC3)c2)cn1)c1ccc(F)cc1 [Example 5, (R)-5′-cyclopropyl-N-(1-(4-fluorophenyl)ethyl)-[3,3′-bipyridin]-6-amine]	≤ 50 nM	≤ 1000 nM
C[C@@H](Nc1ccc(-c2cncc(Cl)c2)cn1)c1ccc(F)cc1 [Example 9, (R)-5′-chloro-N-(1-(4-fluorophenyl)ethyl)-[3,3′-bipyridin]-6-amine]	≤ 200 nM	≤ 50 nM
C[C@@H](Nc1cnc(-c2cncc(CCO)c2)cn1)c1ccc(F)cc1 [Example 35, (R)-2-(5-(5-((1-(4-fluorophenyl)ethyl)amino)pyrazin-2-yl)pyridin-3-yl)ethan-1-ol]	≤ 50 nM	≤ 5000 nM
CC(Nc1cc(F)c(-c2cncc(S(C)(=O)=O)c2)cn1)c1ccc(F)cc1 (single isomer, unassigned) [Example 29b, 4-fluoro-N-(1-(4-fluorophenyl)ethyl)-5′-(methylsulfonyl)-[3,3′-bipyridin]-6-amine]	≤ 1000 nM	≤ 5000 nM
CC[S+]([O-])c1cncc(-c2ccc(N[C@H](C)c3ccc(F)cc3)nc2)c1 (stereo partly drawn) [Example 13, 5′-(ethylsulfinyl)-N-((R)-1-(4-fluorophenyl)ethyl)-[3,3′-bipyridin]-6-amine]	≤ 200 nM	≤ 5000 nM
CS(=O)(=O)c1cncc(-c2cnc(N[C@@H]3CCc4ccccc43)cn2)c1 [Example 36, (R)-N-(2,3-dihydro-1H-inden-1-yl)-5-(5-(methylsulfonyl)pyridin-3-yl)pyrazin-2-amine]	≤ 200 nM	≤ 5000 nM
C[C@@H](Nc1cnc(-c2cncc(OC(F)F)c2)cn1)c1ccc(F)cc1 [Example 39, (R)-5-(5-(difluoromethoxy)pyridin-3-yl)-N-(1-(4-fluorophenyl)ethyl)pyrazin-2-amine]	≤ 1000 nM	≤ 1000 nM
C[C@@H](Nc1ccc(-c2cncc(S(C)(=O)=O)c2)cn1)c1ccc(F)cc1 [Example 7, (R)-N-(1-(4-fluorophenyl)ethyl)-5′-(methylsulfonyl)-[3,3′-bipyridin]-6-amine]	≤ 200 nM	≤ 200 nM
CC(O)c1cncc(-c2ccc(N[C@H](C)c3ccc(F)cc3)nc2)c1 (single isomer, unassigned) [Example 16b]	≤ 50 nM	≤ 200 nM
C=Cc1cncc(-c2ccc(N[C@H](C)c3ccc(F)cc3)nc2)c1 [Example 20, (R)-N-(1-(4-fluorophenyl)ethyl)-5′-vinyl-[3,3′-bipyridin]-6-amine]	≤ 50 nM	≤ 50 nM
CC[S+]([O-])c1cncc(-c2cnc(N[C@H](C)c3ccc(F)cc3)cn2)c1 (stereo partly drawn) [Example 24, 5-(5-(ethylsulfinyl)pyridin-3-yl)-N-((R)-1-(4-fluorophenyl)ethyl)pyrazin-2-amine]	≤ 200 nM	≤ 5000 nM
C[C@@H](Nc1cnc(-c2cncc(OC(F)(F)F)c2)cn1)c1ccc(F)cc1 [Example 43, (R)-N-(1-(4-fluorophenyl)ethyl)-5-(5-(trifluoromethoxy)pyridin-3-yl)pyrazin-2-amine]	≤ 50 nM	≤ 5000 nM
CCc1cncc(-c2ccc(N[C@@H]3CCc4ccccc43)nc2)c1 [Example 21, (R)-N-(2,3-dihydro-1H-inden-1-yl)-5′-ethyl-[3,3′-bipyridin]-6-amine]	≤ 200 nM	≤ 5000 nM
CC(Nc1cc(F)c(-c2cncc(S(C)(=O)=O)c2)cn1)c1ccc(F)cc1 (single isomer, unassigned) [Example 29a, 4-fluoro-N-(1-(4-fluorophenyl)ethyl)-5′-(methylsulfonyl)-[3,3′-bipyridin]-6-amine]	≤ 50 nM	≤ 1000 nM
CCc1cncc(-c2ccc(N[C@H](C)c3ccc(C)cc3)nc2)c1 [Example 50, (R)-5′-ethyl-N-(1-(p-tolyl)ethyl)-[3,3′-bipyridin]-6-amine]	≤ 1000 nM	≤ 5000 nM
C[C@@H](Nc1cnc(-c2cncc(C(O)C(F)(F)F)c2)cn1)c1ccc(F)cc1 (mixture of isomers) [Example 32, 2,2,2-trifluoro-1-(5-(5-(((R)-1-(4-fluorophenyl)ethyl)amino)pyrazin-2-yl)pyridin-3-yl)ethan-1-ol]	≤ 200 nM	≤ 50 nM
CS(=O)(=O)c1cncc(-c2ccc(NC3CCc4cc(F)ccc43)nc2)c1 (stereo not drawn) [Example 38, N-(5-fluoro-2,3-dihydro-1H-inden-1-yl)-5′-(methylsulfonyl)-[3,3′-bipyridin]-6-amine]	≤ 1000 nM	≤ 50 nM
C[C@@H](Nc1ncc(-c2cncc(C=C(F)F)c2)nn1)c1ccc(F)cc1 [Example 40, (R)-6-(5-(2,2-difluorovinyl)pyridin-3-yl)-N-(1-(4-fluorophenyl)ethyl)-1,2,4-triazin-3-amine]	≤ 200 nM	≤ 5000 nM
C[C@@H](Nc1ccc(-c2cncc([S+](C)[O-])c2)cn1)c1ccc(F)cc1 (stereo partly drawn) [Example 14, N-((R)-1-(4-fluorophenyl)ethyl)-5′-(methylsulfinyl)-[3,3′-bipyridin]-6-amine]	≤ 200 nM	≤ 5000 nM

Next, values leading:

EC50 [1]	EC50 [2]	SMILES
≤ 1000 nM	≤ 1000 nM	C[C@@H](Nc1ncc(-c2ccc3oc(=O)n(C)c3c2)nn1)c1ccc(F)cc1F [Example 75, (R)-5-(3-((1-(2,4-difluorophenyl)ethyl)amino)-1,2,4-triazin-6-yl)-3-methylbenzo[d]oxazol-2(3H)-one]
≤ 5000 nM	≤ 5000 nM	C[C@@H](Nc1ncc(-c2cnc3c(c2)ncn3C)nn1)c1ccc(F)cc1 [Example 83, (R)-N-(1-(4-fluorophenyl)ethyl)-6-(3-methyl-3H-imidazo[4,5-b]pyridin-6-yl)-1,2,4-triazin-3-amine]
≤ 1000 nM	≤ 5000 nM	CC(Nc1ncc(-c2ccc3oc(=O)n(C)c3c2)nn1)c1ccc(C#N)cc1 (stereo not drawn) [Example 74, 4-(1-((6-(3-methyl-2-oxo-2,3-dihydrobenzo[d]oxazol-5-yl)-1,2,4-triazin-3-yl)amino)ethyl)benzonitrile]
≤ 1000 nM	≤ 5000 nM	C[C@@H](Nc1ccc(-c2ccc3[nH]c(=O)oc3c2)cn1)c1ccc(F)cc1 [Example 61, (R)-6-(6-((1-(4-fluorophenyl)ethyl)amino)pyridin-3-yl)benzo[d]oxazol-2(3H)-one]
≤ 1000 nM	≤ 5000 nM	C[C@@H](Nc1ncc(-c2ccc3oc(=O)n(C)c3c2)nn1)c1ccc(Cl)cc1 [Example 73, (R)-5-(3-((1-(4-chlorophenyl)ethyl)amino)-1,2,4-triazin-6-yl)-3-methylbenzo[d]oxazol-2(3H)-one]
≤ 50 nM	≤ 1000 nM	C#Cc1cncc(-c2ccc(N[C@H](C)c3ccc(F)cc3)nc2)c1 [Example 51, (R)-5′-ethynyl-N-(1-(4-fluorophenyl)ethyl)-[3,3′-bipyridin]-6-amine]
≤ 1000 nM	≤ 5000 nM	C[C@@H](Nc1ncc(-c2ccc3oc(=O)n(CCO)c3c2)nn1)c1ccc(F)cc1 [Example 65, (R)-5-(3-((1-(4-fluorophenyl)ethyl)amino)-1,2,4-triazin-6-yl)-3-(2-hydroxyethyl)benzo[d]oxazol-2(3H)-one]
≤ 1000 nM	≤ 5000 nM	C[C@@H](Nc1ncc(-c2ccc3oc(=O)n(CS(C)(=O)=O)c3c2)nn1)c1ccc(F)cc1 [Example 72, (R)-5-(3-((1-(4-fluorophenyl)ethyl)amino)-1,2,4-triazin-6-yl)-3-((methylsulfonyl)methyl)benzo[d]oxazol-2(3H)-one]
≤ 200 nM	≤ 1000 nM	CCn1c(=O)oc2ccc(-c3cnc(N[C@H](C)c4ccc(F)cc4)nn3)cc21 [Example 67, (R)-3-ethyl-5-(3-((1-(4-fluorophenyl)ethyl)amino)-1,2,4-triazin-6-yl)benzo[d]oxazol-2(3H)-one]
≤ 200 nM	≤ 1000 nM	C[C@@H](Nc1ncc(-c2ccc3ocnc3c2)nn1)c1ccc(F)cc1 [Example 80, (R)-6-(benzo[d]oxazol-5-yl)-N-(1-(4-fluorophenyl)ethyl)-1,2,4-triazin-3-amine]
≤ 1000 nM	≤ 5000 nM	C[C@@H](Nc1ncc(-c2cnc3ncn(C)c3c2)nn1)c1ccc(F)cc1 [Example 82, (R)-N-(1-(4-fluorophenyl)ethyl)-6-(1-methyl-1H-imidazo[4,5-b]pyridin-6-yl)-1,2,4-triazin-3-amine]
≤ 1000 nM	≤ 5000 nM	C[C@@H](Nc1ncc(-c2ccc3oc(=O)n(CCN(C)C)c3c2)nn1)c1ccc(F)cc1 [Example 71, (R)-3-(2-(dimethylamino)ethyl)-5-(3-((1-(4-fluorophenyl)ethyl)amino)-1,2,4-triazin-6-yl)benzo[d]oxazol-2(3H)-one]
≤ 1000 nM	≤ 1000 nM	C[C@@H](Nc1cnc(-c2cncc(C(O)C(F)F)c2)cn1)c1ccc(F)cc1 (single isomer, unassigned) [Example 54b]
